Assay results: publication PMC10011747, “Targeting androgen receptor and the variants by an orally bioavailable Proteolysis Targeting Chimeras compound in castration resistant prostate cancer” (eBioMedicine, 2023)
Like-named read-outs stand apart in the source and are kept apart here.

Key:
AR NTD (221–320) = molecular target: T1, AR NTD (221–320) (Homo sapiens, UniProt P10275); test: Affinity selection mass spectrometer (ASMS) binding assay; settings: 100 nM compound with 100 nM GST-AR-NTD, 1 h 37 °C; percentage of input compound recovered
T1 construct: GST tagged AR-NTD protein (221–320) (Abcam ab157902); purchased Abcam ab157902; host or cells: wheat germ (datasheet)
T1 sequence (P10275 221-320): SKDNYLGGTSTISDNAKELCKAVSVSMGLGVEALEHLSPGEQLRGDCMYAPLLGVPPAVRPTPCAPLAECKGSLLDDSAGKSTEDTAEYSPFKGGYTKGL
Method: Affinity selection mass spectrometer (ASMS)[40] binding assay was employed for the screen and relative binding affinity assessment of AR NTD binding compounds. Briefly, GST tagged AR-NTD protein (221–320) (Abcam ab157902) at final concentration of 100 nM was incubated with 100 nM of individual candidate compounds in PBS for 1 h at 37 °C. The protein-compound mixture was filtered through 10K MWCO pore sized Nanosep centrifugal column (PALL Life science) with thorough wash steps to separate protein-bound and unbound compounds. The protein-bound compounds were subsequently extracted and analyzed by ABSCIEX 4000 QTRAP LC-ESI MS/MS (AB Sciex, Framingham, MA) coupled to an Agilent 1200 HPLC system. A Waters S XBridge RP18, 3.5 μm, 4.6 × 20 mm column was used as the stationary phase (Waters Corporation, Milford, MA, USA). Gradient elution was carried out using water with 0.1% formic acid (solvent A) and acetonitrile with 0.1% formic acid (solvent B) as a mobile phase. Positive ion polarity scanning was used in electrospray (ESI) mass-triggered fraction collection to monitor the target mass. Quantification of protein-bound compounds was determined against calibration curves established with drug standards. For relative binding affinity assessment, same procedure and condition was carried out for each compound without target protein incubated in the reaction as background controls. Relative binding affinity was calculated as percentage of input compound quantity after background value subtraction.

CWR22Rv1 cells = test: alamarBlue cell viability, CWR22Rv1; format: cell-based; settings: Homo sapiens, CWR22Rv1, 168 h; 7 days treatment, normal hormone condition
Method: Cells were seeded in triplicate in 96-well plates 1 day prior to drug treatment for all assays. For viability test and IC50 assessment, the alamarBlue™ Cell Viability Reagent (Thermo Fisher Scientific) was added to cells 7 days after PROTAC treatment, followed by fluorescence detection as the manufacturer instructed. The IC50 was calculated by dose-inhibition regression. For proliferation monitoring, 2, 4, 6 and 8 days after PROTAC treatment (day 0), viable cells were detected by MTT Cell Proliferation Kit I (Sigma–Aldrich) according to the manufacturer's instructions. Cellular caspase activity was measured by Caspase-Glo 3/7 Assay System (Promega) 1 or 2 days after the drug treatment.

[1] = Pharmacokinetic analysis in BALB/c mice; format: in vivo, mouse; settings: for bioavailability: read-out: BA (bioavailability); for clearance: read-out: plasma clearance rate
Method: Six to eight-week-old male BALB/c (BALB/cAnNCrlBltw) mice weighing between 22 and 30 g were purchased from BioLASCO Taiwan Co., Ilan, Taiwan. In vivo PK analysis of the PROTAC compounds was performed with 2 mg/kg for intravenous injection (IV, n = 2), 10 mg/kg for intraperitoneal injection (IP, n = 3), and 10 or 30 mg/kg for oral (PO, n = 3) dosing route. Blood samples from the mice were collected using Microvette® CB 300 EDTA blood collection tubes by a lancet at 0.167 h (IV only), 0.5, 1, 2, 4, 7 and 24 h time points. The plasma was then subjected to LC-MS analysis to quantitate the drug concentration against calibration curves that were established with drug standards prepared in mice plasma.

[2] = male, BALB/c, mouse, plasma, IP, 10 mg/kg
[3] = male, BALB/c, mouse, plasma, PO, 30 mg/kg
[4] = male, BALB/c, mouse, plasma, intravenous, 2 mg/kg
[5] = male, BALB/c, mouse, plasma, ip, 10 mg/kg, 0-24 h
[6] = male, BALB/c, mouse, plasma, ip, 10 mg/kg, IP, 10 mg/kg, read-out: Cmax
[7] = male, BALB/c, mouse, plasma, PO, 10 mg/kg

AUC/Dose ([1]; intravenous, 2 mg/kg) [ng·h/mL] | SMILES | ASMS relative binding (%) (AR NTD (221–320)) | IC50 (CWR22Rv1 cells) [µM] | Cmax ([1]; PO, 30 mg/kg) [ng/mL] | AUC/Dose ([1]; PO, 30 mg/kg, 0-24 h) [h⋅kg⋅ng/mL/mg] | Tmax [1, 2] [h] | Tmax [1, 3] [h] | bioavailability [1, 3] [%] | clearance [1, 4] [mL/min/kg] | AUC(0-t) [1, 5] [ng·h/mL] | Cmax [1, 6] [ng/mL] | AUC(0-t) ([1]; male, BALB/c, mouse, plasma, po, 30 mg/kg, 0-24 h) [ng·h/mL] | Cmax ([1]; male, BALB/c, mouse, plasma, po, 30 mg/kg, PO, 30 mg/kg, read-out: Cmax) [ng/mL] | AUC/Dose ([1]; IP, 10 mg/kg, 0-24 h) [h⋅kg⋅ng/mL/mg] | AUC/Dose ([1]; PO, 10 mg/kg, 0-24 h) [h⋅kg⋅ng/mL/mg] | Tmax [1, 7] [h] | bioavailability [1, 7] [%] | AUC(0-t) ([1]; male, BALB/c, mouse, plasma, po, 10 mg/kg, 0-24 h) [ng·h/mL] | Cmax ([1]; male, BALB/c, mouse, plasma, po, 10 mg/kg, PO, 10 mg/kg, read-out: Cmax) [ng/mL]
 | Cc1ncsc1-c1ccc(CNC(=O)[C@@H]2C[C@H](O)CN2C(=O)[C@@H](NC(=O)COCCCCOc2ccc(C3CCN(C4=Nn5c(nnc5C(F)(F)F)CC4)CC3)cc2)C(C)(C)C)cc1 [ITRI-90, (2S,4S)-1-((S)-3,3-dimethyl-2-(2-(4-(4-(1-(3-(trifluoromethyl)-7,8-dihydro-[1,2,4]triazolo[4,3-b]pyridazin-6-yl)piperidin-4-yl)phenoxy)butoxy)acetamido)butanoyl)-4-hydroxy-N-(4-(4-methylthiazol-5-yl)benzyl)pyrrolidine-2-carboxamide] | 15.9 | 4.13 ± 1.93 | 7056.67 ± 2594.81 | 600.13 ± 263.33 | 1.5 ± 0.7 | 1.67 ± 0.58 | 23 | 6.62 | 25500 ± 13600 | 3940 ± 1140 | 18000 | 7060 |  |  |  |  |  | 
 | O=C1CCC(N2Cc3c(NC(=O)COCCCCOc4ccc(C5CCN(C6=Nn7c(nnc7C(F)(F)F)CC6)CC5)cc4)cccc3C2=O)C(=O)N1 (stereo not shown) [ITRI-126, N-(2-(2,6-dioxopiperidin-3-yl)-1-oxoisoindolin-4-yl)-2-(4-(4-(1-(3-(trifluoromethyl)-7,8-dihydro-[1,2,4]triazolo[4,3-b]pyridazin-6-yl)piperidin-4-yl)phenoxy)butoxy)acetamide] | 20 | 0.071 ± 0.017 |  |  | 1.5 ± 0.5 |  |  | 24.7 | 2340 ± 263 | 706 ± 222 |  |  | 234.2 ± 26.3 | 20.4 ± 8.6 | 0.7 ± 0.2 | 4.6 ± 1.9 | 204 ± 85.9 | 95.7 ± 47.1
2839.9 ± 36.7 | Cc1ncsc1-c1ccc(CNC(=O)[C@@H]2C[C@H](O)CN2C(=O)[C@@H](NC(=O)COCCCCCCOc2ccc(C3CCN(C4=Nn5c(nnc5C(F)(F)F)CC4)CC3)cc2)C(C)(C)C)cc1 [ITRI-125, (2S,4S)-1-((S)-3,3-dimethyl-2-(2-(6-(4-(1-(3-(trifluoromethyl)-7,8-dihydro-[1,2,4]triazolo[4,3-b]pyridazin-6-yl)piperidin-4-yl)phenoxy)hexyloxy)acetamido)butanoyl)-4-hydroxy-N-(4-(4-methylthiazol-5-yl)benzyl)pyrrolidine-2-carboxamide] | 13.6 | 6.92 ± 6.23 |  |  |  |  |  | 5.68 |  |  |  |  |  |  |  |  |  | 
